Measured values: patent publication EP3925626A1, “LIPOPEPTIDE CONJUGATES AND THEIR SALTS, METHOD OF MANUFACTURE OF LIPOPEPTIDE CONJUGATES AND THEIR SALTS, PHARMACEUTICAL COMPOSITION COMPRISING A LIPOPEPTIDE CONJUGATE AND ITS SALTS FOR THE TREATMENT OF CHRONIC WOUNDS” (priority 2020, dated 2021)
Where two headings read alike, the source gives them in different places. Where a SMILES comes first, the peptide text is derived from it. [ ]: non-standard residue; d: D form. The star is where a group is joined. Hyp = O=C(O)[C@@H]1C[C@@H](O)CN1; Lauroyl = CCCCCCCCCCCC(=O)*

What was measured:
primary fibroblast cells = assay: In vitro wound healing (closure) assay with IBIDI culture inserts, fibroblast migration; assay type: cell-based, human
Procedure: In vitro wound healing (closure) assay using IBIDI culture inserts were performed according to literature. Briefly, cell suspension (1,5×10^4) was seeded in Culture-insert 2 well in 70µl of growth medium (DMEM) and cultured for 24 h (37°C, 5%CO2) to form a monolayer. After removal of the Culture-insert, the newly created cell-free gap (wound) was wahed with DMEM followed by PBS. Cell monolayer was also preincubated for 30 min in the presence of mitomycin C (8µg/mL), as a DNA replication and cell proliferation inhibitor. A fresh DMEM and the cells were treated with a pharmaceutical composition containing a lipopeptide conjugate or pharmaceutically acceptable salt and incubated for 24h (37°C, 5%CO2). The cultures in DMEM (K+) was incubated under the same conditions as described above. After overnight incubation, the media was removed, cells were rinsed with sterile PBS and then 1% paraformaldehyde (PFA) was added. After 20 minutes, the cells were washed with PBS and stained with 0.05% crystal violet solution. The stained cells were washed with PBS and then distilled water was added to each well. The wounded areas were visualized microscopically and photographed by microscope (Zeiss). Photographs from the process of human fibroblasts migration after treatment with a pharmaceutical composition containing a lipopeptide conjugate or a pharmaceutically acceptable salt thereof at a given concentration are shown in Figure 7. Cell migration was analyzed using Imaging Software NIS-Elements Basic Research. Alternatively, the migration rate was expressed as the percentage of area reduction (wound closure) compared to the control K. Data of at least independent experiments (n=3) were shown in Figure 4. […] However, lipopeptide conjugates at a concentration of 0.01µg/mL regulated independently both processes, including fibroblast proliferation and migration.
The wound area reduced by 10.3-20.7% as cell migration progresses in comparison to control. This effect was statistically significant. The migration of primary fibroblast cells was enhanced after 24 hours of lipopeptide conjugates treatment. […]

[1] = system: human keratinocyte primary culture; assay: Keratinocyte proliferation in the wound closure setting; assay type: cell-based; details: relative to non-stimulated DMEM (K), mean±SD
HaCaT [2] = assay: Cytotoxicity, LDH release assay; assay type: cell-based, human; details: 10% decrease in viability, tested 1÷1000 µg/mL
Procedure: (§1) The cytotoxicity of lipopeptide conjugates or their pharmaceutically acceptable salts was assessed in immortalized human cell lines, human primary fibroblast cells independently, separately using two assays, XTT and LDH. Approximately, 5×10^3 fibroblast human cell line BR1N, human primary fibroblast cells or HaCaT cells in 200 µl DMEM supplemented with 10% FCS per well were seeded in 96-well plate and incubated for 24 h (37°C, 5%CO2). Culture medium was replaced with fresh DMEM, and then the cells were exposed to lipopeptide conjugate or its pharmaceutically acceptable salt solutions administered in DMEM at the final concentration in the range from 1 µg mL^-1 to 1000 µg mL^-1. In the experiments, cells in DMEM medium treated with 0.9% solution of Triton X-100 were used as positive control (K+, 100% mortality), untreated cells in DMEM medium were assayed as a negative control (K-). After incubation, cytotoxicity was assessed by measuring the activity of the intracellular cytoplasmic enzyme - lactate dehydrogenase (LDH) and decrease in cell viability measured by a decrease in mitochondria metabolism activity to XTT reduction. The rapidly release of LDH enzyme into the cell culture supernatant is correlated with the plasma membrane damage and cell death. The LDH enzyme release was measured after removal of the supernatant, colorimetrically by incubation with reagent containing 2[4-iodophenyl]-3-[4-nitrophenyl]-5-phenyltetrazolium chloride. The absorbance measured at a wavelenght of 490nm using microplate reader Perkin Elmer spectrophotometer was proportional do LDH activity and the number of damaged cells. The XTT test was performed by adding the XTT solution to each test well. After incubation time at 37°C, the absorbance was measured at a wavelenght of 490nm. Average of absorbance measurements from 3 independent experiments was used to estimate the cell death. The mean absorbance from control wells was considered as 0% (negative control) and 100% (positive control) of cell mortality.

primary fibroblast [3] = assay type: cell-based
Procedure: as §1

HaCaT [4] = assay: Cytotoxicity, XTT viability assay (MTT in Table 5); assay type: cell-based, human; details: MTT (so in the source), 10% decrease in viability, tested 1÷1000 µg/mL
Procedure: as §1

human erythrocytes = assay type: cell-based
Procedure: Hemolytic activity was determined by incubating 2% suspension of erythrocytes from healthy human blood (n=3)) with serial dilutions of each selected lipopeptide conjugates (at concentration range from 1000µg/mL to 10µg/mL). Fresh erythrocytes were collected by centrifugation for 10 min at 500xg, washed three times with PBS and diluted to a concentration of 2% in PBS. Erythrocytes were incubated with lipopeptide conjugate, but also with 1% Triton X-100 (positive control), in PBS (blank) at 37°C for 1 hour. After incubation, the plates were centrifuged at 500×g for 10 min, and the supernatants were transferred to new clean wells. Release of hemoglobin was measured as the absorbance of the supernatants at a wavelength of 540 nm using microplate reader (Victor PerkinElmer). The relative optical density compared to the suspension treated with 1% Triton X-100 was defined as the percentage of hemolysis. The results present HC10, HC50 defined as the lowest concentration of lipopeptide conjugate that induced 10% and 50% cell lysis, respectively. The novel lipopeptide conjuagtes have a lack of hemolytic activity at the wide range of concentrations in relation to their biological effect. These lipopeptide conjugates induced 10% of cell lysis at concentration range from 0.19 to 1.62 mM (Table 6). […]

BALB/c mice = assay: In vivo full-thickness excision wound healing; set-up: species or system Mus musculus BALB/c mice; details: preparation 0.1% w/w daily d0÷d10 or 4.0% w/w at d0, d3, d7, d10; versus control
Procedure: 8-10 week-old female Mus musculus BALB/c mice (purchased from Tri-City Academic Laboratory Animal Centre-Research nad Services Centre) were used in the study. The experiments were carried out in Tri-City Academic Laboratory Animal Centre - Research and Services Centre according to the approved guidelines of Local Ethics Committee of Animal Experimentation in Bydgoszcz (permit No. 31/2018). Mice were housed under standard conditions, with ad libitum access to food pellets and tap water, and kept under control conditions (22±2°C, relative humidity 55±10%, 12/12 light/darck cycle).
In experiments, mice were divided into groups i.e. control groups (n=6) and experimental groups (n=6). The animals were anesthetized with 3÷5% isoflurane. […] The progress of the wound healing process was assessed according to the defined administration schedule at intervals (d0, d3, d7, d10, d14). […] Wound surfaces were each photographed with a Nikon Coolpix S5100 camera and calculated with the use of Image J. Wound healing (restoration of a full-layer skin) is interpreted as the percentage reduction of the original wound area over time. The process of reepithelization was also assessed, indicating the surface of new epithelium extending. […]

BR1N [5] = assay: Cytotoxicity, LDH release assay; assay type: cell-based, human; details: 10% decrease in viability, tested 1÷1000 µg/mL
Procedure: as §1

BR1N [6] = assay: Cytotoxicity, XTT viability assay (MTT in Table 5); assay type: cell-based, human; details: MTT (so in the source), 10% decrease in viability, tested 1÷1000 µg/mL
Procedure: as §1

primary fibroblast [7] = assay: Cytotoxicity, XTT viability assay (MTT in Table 5); assay type: cell-based, human; details: MTT (so in the source), tested 1÷1000 µg/mL; for EC10: 10% decrease in viability
Procedure: as §1

Row | Structure (SMILES) | Percentage wound area reduction observed at (primary fibroblast cells; primary fibroblast cells, tested at 0.01 and 0.10 µg/mL) | Keratinocyte proliferation [n-times of control] ([1]; 0.01 µg/mL) | Keratinocyte proliferation [n-times of control] ([1]; 0.10 µg/mL) | EC10 (HaCaT [2]) | EC10 (primary fibroblast [3]) | EC10 (HaCaT [4]) | HC10 (human erythrocytes) | HC50 (human erythrocytes) | HC10 (human erythrocytes; red cells of human, 1 h) | HC50 (human erythrocytes; red cells of human, 1 h) | Differences in wound size and coverage of the wound with a new epithelial layer (BALB/c mice) | EC10 (BR1N [5]) | EC10 (BR1N [6]) | EC10 (primary fibroblast [7]) | concentration that facilitates primary human fibroblast cell migration (primary fibroblast cells; 24 h treatment) | reduction of the wound surface (primary fibroblast cells; aqueous solution, 0.01 µg/mL, compared to the control, primary human fibroblast cells) | EC50 (primary fibroblast [7]; 50% decrease in viability)
1 | CCCCCCCCCCCC(=O)NCC(=O)N1CCC[C@H]1C(=O)N[C@@H](CCCCN)C(N)=O [Lipopeptide conjugate 1] (Lauroyl-Gly-Pro-Lys-NH2) | 10-fold increased concentrations | 1.08±0.04 n-times of control | 1.08±0.04 n-times of control | 537.1 ± 45.3 µM | 890.9±171. 9 µM | 254.1 ± 85.5 µM | 0.2962 mM | > 1.0387 mM | 142.5 µg/mL | > 500 µg/mL | visible from Day 3 | – | – | – | – | – | –
2 | CCCCCCCCCCCC(=O)NCC(=O)N1C[C@H](O)C[C@H]1C(=O)N1C[C@H](O)C[C@H]1C(=O)N[C@@H](CCCCN)C(N)=O [Lipopeptide conjugate 2, N^α-lauroyl-Gly-Hyp-Hyp-Lys-NH2] (Lauroyl-G[Hyp][Hyp]K-NH2) | – | – | – | 346.9 ± 35.0 µM | 409.6 ± 66.9 µM | – | 0.1858 mM | – | 113.4 µg/mL | – | – | 432.8 ± 34.5 µM | 327.6 ± 40.9 µM | 431.2 ± 34.7 µM | – | – | –
3 | CCCCCCCCCCCC(=O)NCC(=O)N1CCC[C@H]1C(=O)N1C[C@H](O)C[C@H]1C(=O)N[C@@H](CCCCN)C(N)=O [Lipopeptide conjugate 3, N^α-lauroyl-Gly-Pro-Hyp-Lys-NH2] (Lauroyl-GP[Hyp]K-NH2) | – | 1.29±0.17 n-times of control | 1.34±0.11 n-times of control | 171.4 ± 78.3 µM | 420.6 ± 42.1 µM | 210.2 ± 110.4 µM | 1.6169 mM | – | 961.1 µg/mL | – | visible from Day 3 | – | >504.7 µM | 399.7 ± 35.8 µM | < 0.1 µg/mL | 18.29% | 685 ± 138 µM
